{"source": "patent US9458200B2", "about": "“Method for producing intermediates for the production of novel macrocycles that are inhibitors of the proteasomic degradation of p27, such as argyrin and derivatives thereof, and uses of said macrocycles” (Gottfried Wilhelm Leibniz Universität Hannover, priority 2008, dated 2016)", "key": {"[1]": {"target": "T1, erythrocyte-derived 20S proteasome, chymotrypsin-like activity (Homo sapiens, UniProt P20618+P28074)", "T1 construct": "using erythrocyte-derived 20S proteasome; purchased Biomol International PW8720; host or cells: human erythrocytes", "experiment": "20S-Proteasome-Test (manual), chymotrypsin-like substrate", "type": "biochemical", "experimental": "(§1) Proteasome assays with purified 20S proteasome were performed as previously described (Lightcap, E. S. et al. Proteasome inhibition measurements: clinical application. Clin Chem 46, 673-83 (2000)) using erythrocyte-derived 20S proteasome (Biomol International,#LP PW8720) and fluorometric substrates Succ-LLVY-AMC, BZ-VGR-AMC and Z-Lle-AMC (Biomol International, LP PW9905) as probes according to the manufacturers instructions. Proteasome extraction from cells and tumor sections was done as previously described (Crawford, L. J. et al. Comparative selectivity and specificity of the proteasome inhibitors BzLLLCOCHO, PS-341, and MG-132. Cancer Res 66, 6379-86 (2006)). Briefly cells (MEF or MCF-7) or tissue sample homogenate (tumor sections) were re-suspended in 1 mL ATP/DTT lysis buffer (10 mmol/L Tris-HCl (pH7.8), 5 mmol/L ATP, 0.5 mmol/L DTT, 5 mmol/L MgCl2), and incubated on ice for 10 minutes, followed by sonication for 15 seconds. The lysates were centrifuged at 400×g for 10 min at 4° C., and the resulting supernatant containing proteasomes was stable at −80° C. with the addition of 20% glycerol for at least 1 month. Protein concentration of the samples was measured using a coomassie protein assay (Pierce, Rockford, Ill.).\n(§2) Proteasome assays with purified 20S proteasome were performed as previously described (Lightcap et al., 2000) using erythrocyte-derived 20S proteasome (Biomol International,#LP PW8720) and fluorometric substrates Succ-LLVY-AMC, BZ-VGR-AMC and Z-Lle-AMC (Biomol International, LP PW9905). Proteasome extraction from cells and tumor sections was done as previously described (Crawford et al., 2006). For proteasome extraction from whole blood, frozen whole blood cell pellets were thawed and lysed in 2-3 pellet volumes cold lysis buffer (5 mM EDTA, pH 8.0). […] The rate of cleavage of fluorogenic peptide substrates was determined by monitoring the fluorescence of released aminomethylcoumarin using a Victor 1420 Multilabel counter (Wallac) at an excitation wavelength of 395 nm and emission wavelength of 460 nm over a period of 60 min. […]"}, "[2]": {"target": "T2, erythrocyte-derived 20S proteasome, caspase-like activity (Homo sapiens, UniProt P28072+Q99436)", "T2 construct": "using erythrocyte-derived 20S proteasome; purchased Biomol International PW8720; host or cells: human erythrocytes", "experiment": "20S-Proteasome-Test (manual), caspase-like substrate", "type": "biochemical", "experimental": "as §1, §2"}, "[3]": {"system": "T3, 20S proteasome", "T3 construct": "using erythrocyte-derived 20S proteasome; purchased Biomol International PW8720; host or cells: human erythrocytes", "experiment": "Proteasome-assay, overall comparison in words (all three subunits)", "type": "biochemical, human", "details": "compared with argyrin F", "experimental": "as §1\nProteasome assays with purified 20S proteasome were performed as previously described (Lightcap et al., 2000) using erythrocyte-derived 20S proteasome (Biomol International,#LP PW8720) and fluorometric substrates Succ-LLVY-AMC, BZ-VGR-AMC and Z-Lle-AMC (Biomol International, LP PW9905). Proteasome extraction from cells and tumor sections was done as previously described (Crawford et al., 2006). For proteasome extraction from whole blood, frozen whole blood cell pellets were thawed and lysed in 2-3 pellet volumes cold lysis buffer (5 mM EDTA, pH 8.0). Lysates were spun down at 4° C. and the supernatant was transferred to a fresh tube. 5 μl was taken for the determination of protein concentration using a coomassie protein assay (Pierce, Rockford, Ill.). Proteasome assays using proteasome purified from cells or tissues were carried out in a 100 μL reaction volume containing 20 μg proteasome extract, 50 mmol/L EDTA and 60 μmol/L fluorogenic substrate (chymotrypsin-like(CT-L), trypsin-like(T-L) or caspase-like (C-L)) in ATP/DTT lysis buffer at 37° C. The assay buffer was supplemented with a final concentration of 0.05% SDS for the evalution of the chymotrypsin-like activity and caspase-like activity. The rate of cleavage of fluorogenic peptide substrates was determined by monitoring the fluorescence of released aminomethylcoumarin using a Victor 1420 Multilabel counter (Wallac) at an excitation wavelength of 395 nm and emission wavelength of 460 nm over a period of 60 min."}, "[4]": {"target": "T4, erythrocyte-derived 20S proteasome, trypsin-like activity (Homo sapiens, UniProt P49720+Q99436)", "T4 construct": "using erythrocyte-derived 20S proteasome; purchased Biomol International PW8720; host or cells: human erythrocytes", "experiment": "20S-Proteasome-Test (manual), trypsin-like substrate", "type": "biochemical", "experimental": "as §1, §2"}, "[5]": {"system": "SW-480 (colon cancer cell line)", "experiment": "MTT-test, proliferation of SW-480", "type": "cell-based", "experimental": "MTT assays were done as previously described (Sasse, F. et al. Argyrins, immunosuppressive cyclic peptides from myxobacteria. I. Production, isolation, physico-chemical and biological properties. J Antibiot (Tokyo) 55, 543-51 (2002)). TUNEL staining of tissue sections was performed on 10 micrometer sections which were deparafinised and treated as recommended by the manufacturer. (In Situ Cell Death Detection Kit, Fluorescein; ROCHE, Cat #11 684 795 910). Flow cytometric analysis of cultured cells was done using a Becton Dickinson fluorescence cytometer as previously described (Malek, N.P. et al. A mouse knock-in model exposes sequential proteolytic pathways that regulate p27^Kip1 in G1 and S phase. Nature 413, 323-7 (2001)). Analysis of the distribution of cells in the cell cycle and the sub-G1 fraction was done using Cell Quest software. A histone-associated-DNA-fragments ELISA was used to determine the number of apoptotic cells according to manufacturers instructions (Roche #11 774425001)."}, "[6]": {"system": "H15 (cervix carcinoma)", "experiment": "MIC (visual), serial dilution, H15 cells", "type": "cell-based", "details": "minimal concentration of a serial dilution exhibiting a visual effect", "from_the_text": "(§3) The following table summarizes the effects of […]-derivatives B and F on two cancer cell lines, H15 (cervix carcinoma) and SW-480 (colon cancer). In order to test the efficacy, a p27-GFP-clone was used. [table]"}, "[7]": {"system": "SW-480 (colon cancer)", "experiment": "MIC (visual), serial dilution, SW-480 cells", "type": "cell-based", "details": "minimal concentration of a serial dilution exhibiting a visual effect", "from_the_text": "as §3"}, "[8]": {"system": "H15GFP-p27 clone (HeLa-cell line; cervix-carcinoma)", "experiment": "GFP-fluorescence per FACS of p27-GFP clone H15GFP-p27", "type": "cell-based", "details": "GFP-fluorescence per FACS after 24 h incubation, 500 ng/ml", "from_the_text": "as §3"}}, "note": "Starred links: 1 amine or outer side, 2 acyl side, 3 side chain; linkers in the order of their positions; H or OH if unused. Non-standard residues stand in square brackets, D forms with d. Residues, ends and D or L forms follow the SMILES beside them. Trp(4-OMe) = COc1cccc2[nH]cc(C[C@H](N)C(=O)O)c12; X1 = O=C(c1csc([C@@H](CO)N[*:1])n1)[*:2]; Dha = C=C(N)C(=O)O; Sar = CNCC(=O)O", "data": [{"compound": "C=C1NC(=O)[C@@H](C)NC(=O)[C@@H](C)NC(=O)[C@H](Cc2c[nH]c3cccc(OC)c23)NC(=O)[C@H](Cc2c[nH]c3ccccc23)NC(=O)c2csc(n2)[C@@H](CO)NC(=O)CN(C)C1=O", "note": "[Argyrin ala alpha] (cyclo([Dha][Sar][X1]W[Trp(4-OMe)][dA][dA]))", "values": [{"measurement": "rel. activ. in % after 20 min.", "setting": "[1]; conc. in test 100 μmol/L", "result": 17, "unit": "%"}, {"measurement": "rel. activ. in % after 20 min.", "setting": "[2]; conc. in test 100 μmol/L", "result": 11, "unit": "%"}, {"measurement": "inhibiting effect on the proteasome, compared in words", "setting": "[3]", "result": "higher activities than Argyrin F"}, {"measurement": "inhibiting effect on the proteasome, compared in words", "setting": "[3]; listed as Argyrin Ala alpha", "result": "slightly less active"}, {"measurement": "rel. activ. in % after 20 min.", "setting": "[4]; conc. in test 100 μmol/L", "result": 72, "unit": "%"}]}, {"compound": "C=C1NC(=O)[C@@H](C)NC(=O)[C@H](C)NC(=O)[C@H](Cc2c[nH]c3cccc(OC)c23)NC(=O)[C@H](Cc2c[nH]c3ccccc23)NC(=O)c2csc(n2)[C@@H](CO)NC(=O)CN(C)C1=O", "note": "[Argyrin ala beta] (cyclo(A[dA][Dha][Sar][X1]W[Trp(4-OMe)]))", "values": [{"measurement": "rel. activ. in % after 20 min.", "setting": "[1]; conc. in test 100 μmol/L", "result": 8, "unit": "%"}, {"measurement": "rel. activ. in % after 20 min.", "setting": "[2]; conc. in test 100 μmol/L", "result": 7, "unit": "%"}, {"measurement": "inhibiting effect on the proteasome, compared in words", "setting": "[3]", "result": "higher activities than Argyrin F"}, {"measurement": "inhibiting effect on the proteasome, compared in words", "setting": "[3]; listed as argyrin Ala beta", "result": "stronger inhibiting effect on the proteasome than argyrin F"}, {"measurement": "rel. activ. in % after 20 min.", "setting": "[4]; conc. in test 100 μmol/L", "result": 26, "unit": "%"}]}, {"compound": "C=C1NC(=O)[C@@H](C)NC(=O)CNC(=O)[C@H](Cc2c[nH]c3cccc(OC)c23)NC(=O)[C@H](Cc2c[nH]c3ccccc23)NC(=O)c2csc(n2)[C@@H](CO)NC(=O)CN(C)C1=O", "note": "[Argyrin F] (cyclo([Dha][Sar][X1]W[Trp(4-OMe)]G[dA]))", "values": [{"measurement": "rel. activ. in % after 20 min.", "setting": "[1]; conc. in test 200 μmol/L", "result": 15, "unit": "%"}, {"measurement": "rel. activ. in % after 20 min.", "setting": "[2]; conc. in test 200 μmol/L", "result": 17, "unit": "%"}, {"measurement": "rel. activ. in % after 20 min.", "setting": "[4]; conc. in test 200 μmol/L", "result": 32, "unit": "%"}, {"measurement": "IC50", "setting": "[5]; Homo sapiens, SW480, half-maximal inhibition of proliferation, read-out: IC-50 SW-480", "result": 0.05, "unit": "µg/mL"}, {"measurement": "MIC (visual) HIS", "setting": "[6]", "result": 0.5, "unit": "µg/mL"}, {"measurement": "MIC (visual) SW-480", "setting": "[7]", "result": 0.2, "unit": "µg/mL"}, {"measurement": "Mean of FSC-H (Log) H15 p27-GFP-clone", "setting": "[8]", "result": 11.24}]}, {"compound": "Argyrin B", "values": [{"measurement": "IC-50 SW-480", "setting": "[5]; half-maximal inhibition of proliferation", "result": "Ca. 0.05 μg/ml"}, {"measurement": "MIC (visual) HIS", "setting": "[6]", "result": 12, "unit": "µg/mL"}, {"measurement": "MIC (visual) SW-480", "setting": "[7]", "result": 12, "unit": "µg/mL"}, {"measurement": "Mean of FSC-H (Log) H15 p27-GFP-clone", "setting": "[8]", "result": 7.60}]}]}
